Experimental data as given in the supplement of paper PMC11451515.

What was measured:
Assay in all cases: AUC of viability dose-response curve (% viability x log10 dose units); higher = less sensitive
Conditions in all cases: 48 h
[1] = test system: NOMO1
Procedure, shortened: (§1)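 Leukemia cells adapted to each medium were seeded in 1536-well plates (500 or 1000 cells/well) and given library compounds in DMSO for 48 h at 37°C. The 11 threefold doses spanned 47 μM to 0.79 nM, and CellTiter-Glo One luminescence was normalised per plate to DMSO and cell-free wells before four-parameter log-logistic fitting on log10 dose. Area under the curve was integrated with the trapezoidal rule, scaling curves above full viability and removing curves that failed quality control.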

[2] = test system: P12-Ichikawa
Procedure, shortened: as §1

[3] = test system: SEM cells
Procedure, shortened: as §1

[4] = RPMI 5 mM glucose + 10% dialyzed FBS

Row | SMILES | AUC of viability dose-response curve ([1]; HPLM + 10% dialyzed FBS) | AUC of viability dose-response curve ([1]; RPMI 5 mM glucose + 10% FBS) | AUC of viability dose-response curve [1, 4] | AUC of viability dose-response curve ([2]; HPLM + 10% dialyzed FBS) | AUC of viability dose-response curve ([2]; RPMI 5 mM glucose + 10% FBS) | AUC of viability dose-response curve [2, 4] | AUC of viability dose-response curve ([3]; HPLM + 10% dialyzed FBS) | AUC of viability dose-response curve ([3]; RPMI 5 mM glucose + 10% FBS) | AUC of viability dose-response curve [3, 4]
1 | COC(=O)Nc1ccc(-c2nc(N3CCOCC3)c3cnn(C4CCN(Cc5cccnc5)CC4)c3n2)cc1 | 298 | 361 | 319 | 355 | 323 | 314 | 292 | 242 | 249
2 | Nc1nc(Nc2ccc([S+](N)(=O)[O-])cc2)nn1C(=O)c1c(F)cccc1F | 437 | 410 | 402 | 455 | 435 | 439 | 397 | 407 | 399
3 | COC/1=C/[C@@H]2[C@@H]3CC4=C(C(=C(OC)C=C4)O)[C@]2(CCN3C)CC1=O | 476 | 459 | 471 | 473 | 467 | 466 | 472 | 469 | 464
4 | CN[C@H]1[C@H](O[C@@H]2[C@H](O[C@@H]3[C@@H](O)[C@@H](O)[C@@H](NC(=N)N)[C@@H](O)[C@H]3NC(=N)N)O[C@H](C)[C@@]2(O)C=O)O[C@@H](CO)[C@@H](O)[C@H]1O | 412 | 456 | 449 | 452 | 450 | 424 | 386 | 432 | 455
5 | CCNC(=O)Nc1ccc(-c2nc3c(c(N4CCOC[C@@H]4C)n2)CCN(C2COC2)C3)cc1 | 352 | 407 | 380 | 370 | 358 | 356 | 366 | 353 | 378
6 | CO[C@H]1/C=C/O[C@@]2(C)Oc3c(C)c(O)c4c(O)c(c(/C=N\N5CCN(C6CCCC6)CC5)c(O)c4c3C2=O)NC(=O)/C(C)=C\C=C\[C@H](C)[C@H](O)[C@@H](C)[C@@H](O)[C@@H](C)[C@H](OC(C)=O)[C@@H]1C | 308 | 300 | 304 | – | – | – | – | – | –
7 | CN(c1nccc(=O)[nH]1)C1CCN(c2nc3ccccc3n2Cc2ccc(F)cc2)CC1 | 466 | 459 | 471 | 466 | 460 | 462 | 474 | 424 | 473
8 | O=C(O)[C@@H](c1ccc(OCc2ccc3ccccc3n2)cc1)C1CCCC1 | 466 | 470 | 454 | 450 | 435 | 458 | – | – | –
9 | CCCC1=N[N](C)C2=C1\N=C(/NC2=O)C3=CC(=CC=C3OCC)[S+]([O-])(=O)N4CCN(C)CC4 | 400 | 385 | 403 | 407 | 385 | 381 | 349 | 356 | 364
10 | CN1C2=CC(=O)/C(=N/NC(N)=O)C=C2CC1S(=O)(=O)[O-].[Na+] (stereo not given) | 454 | 462 | 461 | 475 | 472 | 459 | 455 | 449 | 447
11 | O=C(O)CSCC(=O)NC1CCSC1=O (stereo not given) | 471 | 476 | 476 | 466 | 469 | 463 | 451 | 456 | 464
12 | CN1\N=N/C2=C(N=C[N]2C1=O)C(N)=O | 445 | 458 | 450 | 466 | 466 | 452 | 331 | 318 | 306
13 | O=C1CCC[C@@H]2[C@H]3CCC[N+]4([O-])CCC[C@@H](CN12)[C@@H]34 (stereo not given in full) | 364 | 374 | 369 | 463 | 435 | 422 | 373 | 406 | 398
14 | COc1cc(NC(=O)c2ccc(-c3ccc(Cl)cc3)o2)cc(OC)c1 | 412 | 432 | 418 | 471 | 472 | 472 | 457 | 465 | 463
15 | CN(C)CC[C@H](CSc1ccccc1)Nc1ccc([S+](=O)([O-])NC(=O)c2ccc(N3CCN(Cc4ccccc4-c4ccc(Cl)cc4)CC3)cc2)cc1[N+](=O)[O-] | 363 | 388 | 324 | 321 | 354 | 338 | 195 | 218 | 191
16 | CCN1\C=C(C(O)=O)/C(=O)C2=C1C=C(N3CCN(C)CC3)C(=C2)F | – | – | – | 437 | 437 | 426 | 472 | 458 | 450
17 | O=C(NCCO[N+](=O)[O-])c1cccnc1 | 463 | 472 | 471 | 471 | 474 | 475 | 461 | 455 | 461
18 | C[N+](C)(C)CC(=O)O.[Cl-] | 432 | 398 | 416 | 442 | 446 | 411 | 373 | 374 | 391
19 | OC(CCN1CCCCC1)(C2CC\3CC2\C=C3)C4=CC=CC=C4 (stereo not given) | 465 | 475 | 453 | 463 | 470 | 455 | 442 | 440 | 439
20 | O=[S+]([O-])(CCSSCC[S+](=O)([O-])[O][Na])[O][Na] | 432 | 428 | 450 | 461 | 451 | 472 | 423 | 457 | 438
21 | CCCNCC(O)COc1ccccc1C(=O)CCc1ccccc1 (stereo not given) | 457 | 391 | 473 | 450 | 452 | 458 | 438 | 444 | 432
22 | Cc1cc(SCc2sc(-c3ccc(C(F)(F)F)cc3)nc2C)ccc1OCC(=O)O | 447 | 443 | 463 | 471 | 459 | 458 | 453 | 459 | 457
23 | O=C(O)CCNc1cc(N2CCc3ccccc3CC2)nc(-c2ccccn2)n1 | 448 | 456 | 452 | 463 | 454 | 459 | 463 | 434 | 463
24 | Cc1ccc(NC(=O)c2cccc(N(C)C)c2)cc1NC(=O)c1ccc(O)cc1 | 472 | 464 | 470 | 456 | 461 | 446 | 457 | 474 | 450

Row | SMILES | AUC of viability dose-response curve ([1]; HPLM + 10% dialyzed FBS) | AUC of viability dose-response curve ([1]; RPMI 5 mM glucose + 10% FBS) | AUC of viability dose-response curve [1, 4] | AUC of viability dose-response curve ([2]; HPLM + 10% dialyzed FBS) | AUC of viability dose-response curve ([2]; RPMI 5 mM glucose + 10% FBS) | AUC of viability dose-response curve [2, 4] | AUC of viability dose-response curve ([3]; HPLM + 10% dialyzed FBS) | AUC of viability dose-response curve ([3]; RPMI 5 mM glucose + 10% FBS) | AUC of viability dose-response curve [3, 4]
25 | Cn1cc(-c2cnn3c(N)c(Br)c([C@@H]4CCCNC4)nc23)cn1 | 352 | 322 | 314 | 358 | 342 | 339 | 300 | 344 | 289
26 | COCCCOc1ccnc(C[S+]([O-])c2nc3ccccc3[nH]2)c1C (stereo not given) | 467 | 475 | 460 | 464 | 450 | 449 | – | – | –
27 | C[C@H]1C[C@H]2[C@@H]3CCC4=CC(=O)C=C[C@]4(C)[C@H]3C(=O)C[C@]2(C)[C@@]1(O)C(=O)CO | 442 | 407 | 394 | 443 | 454 | 402 | 390 | 366 | 401
28 | O=C(O)c1ccc(-c2c[nH]c3ncc(-c4ccccc4)cc23)cc1C1CCCC1 | 466 | 471 | 468 | 458 | 453 | 450 | 435 | 404 | 400
29 | CO[C@H]1/C=C/O[C@@]2(C)Oc3c(C)c(O)c4c(O)c(c(/C=N/N5CCN(C)CC5)c(O)c4c3C2=O)NC(=O)/C(C)=C\C=C\[C@H](C)[C@H](O)[C@@H](C)[C@@H](O)[C@@H](C)[C@H](OC(C)=O)[C@@H]1C | 431 | 461 | 461 | 441 | 445 | 430 | – | – | –
30 | CN1CC/C(CC1)=C3\c4ccccc4CC(=O)c2sccc23 | 462 | 463 | 463 | 472 | 467 | 470 | 460 | 472 | 473
31 | COc1nccc(-c2c(-c3ccc(F)cc3)ncn2C2CCC(O)CC2)n1 (stereo not given) | 463 | 458 | 465 | 443 | 465 | 462 | 459 | 320 | 438
32 | CC1(C)Cc2c(sc(NC(=S)NC(=O)c3ccccc3)c2C(=O)O)CO1 | 466 | 456 | 458 | 469 | 476 | 470 | 452 | 474 | 427
33 | Oc1cc2c(cc1O)C1c3ccc(O)c(O)c3OCC1(O)C2 (stereo not given) | 456 | 464 | 459 | 461 | 449 | 469 | 430 | 441 | 447
34 | CCOc1cc(/C=C2/C(=O)N(c3ccccc3)N=C2C)cc(Cl)c1OCC(=O)OC | 432 | 413 | 425 | 424 | 408 | 418 | 386 | 422 | 383
35 | Cc1ccc(NC(=O)Nc2cc(C(F)(F)F)ccc2F)cc1Nc1ccc2c(c1)NC(=O)/C2=C\c1ccc[nH]1 | 455 | 460 | 449 | 466 | 462 | 454 | 439 | 440 | 428
36 | C=CCc1cc(OC)c(O)c(C(=O)NCCO)c1 | 449 | 462 | 446 | 457 | 460 | 466 | 448 | 442 | 454
37 | O=C(C[C@@H]1C/C=C\CCC(=O)O[C@H](c2ccccc2)CNC1=O)NCc1ccc(Cl)cc1 | 473 | 471 | 465 | 452 | 447 | 457 | 437 | 415 | 436
38 | COc1ccc2c(OCc3nnc4ccc(-c5ccccc5)nn34)ccnc2c1 | 443 | 471 | 466 | 459 | 477 | 428 | – | – | –
39 | O=[N+]([O-])c1ccc(Nc2ccccc2-c2ccccc2)c2nonc12 | 451 | 432 | 418 | 432 | 432 | 433 | – | – | –
40 | FC1=CC=C(CN2\C=C/C=C(/C(=O)N[C@@H](COC3=CC4=C(NC(=O)N4)C=C3)C5=CC=CC=C5)C2=O)C=C1F | – | – | – | 430 | 365 | 375 | 373 | 409 | 365
41 | O=C(NCCCNc1nc(Nc2cccc(NC(=O)N3CCCC3)c2)ncc1I)c1cccs1 | 375 | 381 | 384 | 407 | 400 | 401 | – | – | –
42 | C[C@H](NC(=O)Cc1cc(F)cc(F)c1)C(=O)N[C@@H]1C(=O)N(C)c2ccccc2-c2ccccc21 | 386 | 417 | 434 | – | – | – | 373 | 309 | 362
43 | NC(=O)c1ccc(-c2nc(-c3ccc4c(c3)OCO4)c(-c3ccccn3)[nH]2)cc1 | 473 | 466 | 472 | 457 | 429 | 452 | – | – | –
44 | C=CC(=O)Nc1cccc(Oc2nc(Nc3ccc(N4CCN(C)CC4)cc3OC)ncc2Cl)c1 | 325 | 355 | 362 | 374 | 351 | 365 | – | – | –
45 | COc1ccc(C(=O)CC(=O)c2ccc(C(C)(C)C)cc2)cc1 | 449 | 458 | 465 | 471 | 473 | 476 | – | – | –
46 | Cn1cnc(-c2cc3nccc(Oc4ccc(NC(=S)NC(=O)Cc5ccccc5)cc4F)c3s2)c1 | 393 | 395 | 397 | 391 | 374 | 395 | – | – | –
47 | O=C(c1ccc(/C=C/c2n[nH]c3ccccc23)cc1)N1CCNCC1 | 434 | 387 | 383 | 332 | 331 | 346 | – | – | –
